Assay results taken from US20250312365A1, “METHODS FOR INHIBITION OF SQUAMOUS CARCINOMA CELLS USING CERAMIDE MODULATORS” (The Trustees of Indiana University, priority 2024, published 2025).
Entries after “also recorded” stand apart in the source; their conditions may differ.

Tests used:
[1] = system: human gingival squamous carcinoma cells (OECM1); assay: Cell viability/proliferation assay (WST-1) in OECM1 cells; assay type: cell-based; settings: for OECM1 viability / proliferation: 0.1, 1, 2 and 5 μg/ml, normalized to control
Text: (§1) In specific examples, colorimetric assays can be used to assess cellular viability and proliferation of cell cultures, such as MTT, WST-1, and resazurin assays. See, e.g., Präbst et al., Methods Mol Biol. 2017:1601:1-17.
(§2) Various cell lines were exposed to PGDHC, including human gingival squamous carcinoma cells (OECM1), tongue squamous carcinoma cells (SCC4, SCC9), and healthy human gingival epithelial control cells (OBA9) in vitro.
(§3) To elucidate the effects of C16:0 and dh-C16:0 on oral squamous cell carcinoma, the ability of exogenous C16:0 and dh-C16:0 to modulate proliferation and ceramidase expression in OECM1 cells was determined. […] In contrast, no effect of C16:0 on ASAH1 and ACER2 mRNA expressions.
(§4) LCL521 is a dose-dependent acid ceramidase inhibitor. Comparison of the concentration-dependent effects of an acid ceramidase inhibitor, LCL521 (MedChemExpress®), and the bacterial-isolated a15:0-15:0PE phospholipid on the viability of healthy human epithelial, OBA9, and oral squamous cancer cell lines, OECM1 and SCC9, in vitro was evaluated. […] (FIG. 15A). […] (FIG. 15B).

[2] = system: ACER3; assay: ACER3 mRNA expression in OECM1 cells; assay type: cell-based, human; settings: 1 μg/ml, compared to sham control
Text: (§5) Exemplary ceramidase genes, the expression of which can be measured to determine upregulation, include but are not limited to ASAH1, ACER2, and ACER3. A determination of ceramidase gene expression can be made according to methods available to one of skill in the art. For example, Yamada et al., J Cell Mol Med. 2023 May;27(9):1290-1295 and Kyriakou et al., Int. J. Mol. Sci. 2020, 21(5):1607 describes measuring the mRNA levels of ceramidases by RNA extraction and RT-PCR.
To test this hypothesis, it was first determined whether artificially elevated intracellular concentration of ceramide species affect the expression of acid/ASAH1, neutral/ASAH2, and alkaline1-3/ACER1-3 ceramidases in oral squamous cell carcinoma cells using C6-ceramide. Applicant previously reported that C6-ceramide serves as a positive control for PGDHC-mediated inflammation (Kanzaki et al., Biochim Biophys Acta Mol Cell Biol Lipids. 2017 May;1862(5):452-462) and promotes the intracellular accumulation of ceramide in cancer cells. See, e.g., Zhang et al., Front Plant Sci. 2020 Feb. 26:11:145, Zhai et al., Biochem Biophys Res Commun. 2015 December;468(1-2):274-80, Wilhelm et al., Cancers (Basel). 2021 Jan. […]
To elucidate the effects of C16:0 and dh-C16:0 on oral squamous cell carcinoma, the ability of exogenous C16:0 and dh-C16:0 to modulate proliferation and ceramidase expression in OECM1 cells was determined. […]

[3] = system: ASAH1; assay: ASAH1 (acid ceramidase) mRNA expression in OECM1 cells; assay type: cell-based, human; settings: for expression of ASAH1 in OECM1 cells: 1 μg/ml, compared to sham control
Text: as §5
(§6) To test this hypothesis, it was first determined whether artificially elevated intracellular concentration of ceramide species affect the expression of acid/ASAH1, neutral/ASAH2, and alkaline1-3/ACER1-3 ceramidases in oral squamous cell carcinoma cells using C6-ceramide. Applicant previously reported that C6-ceramide serves as a positive control for PGDHC-mediated inflammation (Kanzaki et al., Biochim Biophys Acta Mol Cell Biol Lipids. 2017 May;1862(5):452-462) and promotes the intracellular accumulation of ceramide in cancer cells. See, e.g., Zhang et al., Front Plant Sci. 2020 Feb. 26:11:145, Zhai et al., Biochem Biophys Res Commun. 2015 December;468(1-2):274-80, Wilhelm et al., Cancers (Basel). 2021 Jan. 13;13(2):270, and Chapman et al., Biochem Pharmacol. 2010 Aug. 1;80(3):308-15.
(§7) Next, the effect of PGDHC on ceramidase gene expression was determined. OECM1 and SCC4 cells were exposed to 0.1 or 1 μg/ml of PGDHC. The mRNA levels of ceramidases were then measured following PGDHC exposure. PGDHC inhibited the expression of ASAH1 and ACER2 mRNAs in OECM1 (FIG. 8). […] See, e.g., Vijayan et al., J Adv Res. 2023 Dec. 21:S2090-1232(23)00403-4, Doan et al., Oncotarget. 2017 Nov. 7;8(68):112662-112674., Lai et al., Sci Rep. 2021 May 27;11(1):11221, Liu et al., Cancer Sci. 2020 July;111(7):2259-2274., and Liu et al., Front Genet. 2023 Mar. 1:14:1148437.
as §3
(§8) We evaluated the effect of a15:0-i15:0 phosphoethanolamine phospholipid (FIG. 1D), isolated from the gut bacteria Akkermansia muciniphila on OSCC cells.

[4] = system: ACER2; assay: ACER2 mRNA expression in OECM1 cells; assay type: cell-based, human; settings: 1 μg/ml, compared to sham control
Text: as §5, §6, §7, §3

[5] = system: healthy human gingival epithelial control cells (OBA9); assay: Cell viability/proliferation assay (WST-1) in healthy OBA9 cells; assay type: cell-based
Text: as §1, §2, §4

[6] = system: tongue squamous carcinoma cells (SCC9); assay: Cell viability/proliferation assay (WST-1) in SCC9 cells; assay type: cell-based, human
Text: as §1, §2, §4

[7] = system: SCC9 cells; assay: Untargeted metabolomic pathway analysis (LC/MS) in SCC9 cells; assay type: cell-based, human; settings: 1 μg/ml for 6 h
Text: The plots in FIGS. 16A and 16B display the enriched pathways identified in the analysis, with their corresponding significance levels represented on the x-axis. The significance threshold (p<0.05) is denoted by the dashed line. […] Additionally, the color of the dots represents the enrichment, which indicates the extent to which the metabolites in the pathway were clustered amongst the compounds with the most positive fold-changes (positive enrichments), the most negative fold-changes (negative enrichments), or uniformly distributed across high and low fold-change compounds (enrichment values near 0.0). […] Polar and lipid metabolites were analyzed with hydrophilic interaction chromatography (HILIC/MS) and liquid chromatography (LC/MS), respectively. Mass spectrometry analysis was completed with a mass range of 67-1500 Da with 1 scan/sec and a mass resolution of 120,000 in both positive and negative ionization mode. The MS/MS mass-spectrometry data were acquired in a data-dependent iterative fashion with a 1.3 m/z isolation window. Based upon this metabolomic analysis, phosphoglycerol dihydroceramide (PGDHC) isolated from Porphyromonas gingivalis inhibits metabolomic pathways essential for cell survival in oral squamous cell carcinoma cells (OSCC). […]
SCC9 were exposed to a15:0-i15:0PE (1 μg/ml) for 6 h in vitro. […] The significance threshold (p<0.05) is denoted by the grey dashed line. […] Additionally, the color of the dots represents the enrichment, which indicates the extent to which the metabolites in the pathway were clustered amongst the compounds with the most positive fold-changes (positive enrichments), the most negative fold-changes (negative enrichments), or uniformly distributed across high and low fold-change compounds (enrichment values near 0.0).

[8] = system: acid ceramidase; assay: Acid ceramidase level by confocal microscopy in SCC9 cells; assay type: cell-based, human
Text: as §8

[9] = system: ASAH1; assay: ASAH1 mRNA expression in SCC9 cells; assay type: cell-based, human; settings: different concentrations of a15:0-i15:0PE
Text: as §8

[10] = system: ASAH1; settings: Yamada et al. 2023; cited from earlier work
[11] = system: ceramide and dihydroceramide in OECM1 cells; settings: Yamada et al. 2023; cited from earlier work
[12] = system: human gingival squamous carcinoma cells (OECM1); settings: Yamada et al. 2023; cited from earlier work
[13] = at concentrations lower than 1 μg/mL

## CCCCCCCCCCCCC/C=C/[C@@H](O)[C@H](CO)NC(=O)CCCCC [C6-ceramide]
[1]
  OECM1 viability / proliferation: inhibited OECM1 viability in a concentration-dependent manner
[2]
  expression of ACER3 in OECM1 cells: inhibited expression
[3]
  expression of ASAH1 in OECM1 cells: inhibited expression
[4]
  expression of ACER2 in OECM1 cells: inhibited expression

## CCCCCCCCCCCCC/C=C/[C@@H](O)[C@H](CO)NC(=O)CCCCCCCCCCCCCCC [C16:0, C16:0 ceramide]
[3]
  expression of ASAH1 in OECM1 cells: no effect
[4]
  expression of ACER2 in OECM1 cells: no effect

## CCCCCCCCCCCCCC(=O)N[C@H](COC(=O)CN(C)C)[C@H](OC(=O)CN(C)C)c1ccc([N+](=O)[O-])cc1 [LCL521, reference compound]
[1]; 10 μM
  inhibition of viability of OECM1: 20%
[5]; 10 μM
  inhibition of viability of OBA9: over 50%
[6]; 10 μM
  inhibition of viability of SCC9: 20%

## CC[C@H](C)CCCCCCCCCCC(=O)OC[C@H](COP(=O)(O)OCCN)OC(=O)CCCCCCCCCCCC(C)C [a15:0-15:0PE, 1-(12S-methylmyristoyl)-2-(13-methylmyristoyl)-sn-glycero-3-phosphoethanolamine]
[1]; [13]
  viability of OECM1 cells: significantly inhibited
[5]; concentrations of 0.1, 1.0 and 2.0 μM (FIG. 15B)
  healthy OBA9 cell viability: No significant effect
[3]; different concentrations of a15:0-i15:0PE
  expression patterns of ASAH1 mRNA in OECM1: dose-dependent decrease in expression
[6]; [13]
  viability of SCC9 cells: significantly inhibited
[7]
  amino fatty acid metabolism in SCC9 cells: inhibits
  arginine and proline metabolism in SCC9 cells: inhibits
  vitamin B6 metabolism in SCC9 cells: inhibits
[7]; listed as a15:0-i15:0PE
  amino fatty acid metabolism in SCC9 cells: diminished accumulation
  arginine and proline metabolism in SCC9 cells: diminished accumulation
  vitamin B6 metabolism in SCC9 cells: diminished accumulation
[8]
  levels of acid ceramidase in SCC9 cells (confocal, corrected total cell fluorescence): decreased expression
[9]
  expression patterns of ASAH1 mRNA in SCC9: dose-dependent decrease in expression

## CCCCCCCCCCCCCCCC(=O)N[C@@H](CO)[C@H](O)CCCCCCCCCCCCCCC [dh-C16:0, Dihydroceramide C16:0]
[1]
  OECM1 viability / proliferation: significantly inhibited OECM1 cells proliferation in a concentration-dependent manner
[2]
  expression of ACER3 in OECM1 cells: dramatically inhibits
[3]
  expression of ASAH1 in OECM1 cells: dramatically inhibits
[4]
  expression of ACER2 in OECM1 cells: dramatically inhibits

## phosphoethanolamine dihydroceramide [PEDHC]
[10]
  ASAH1 (acid ceramidase) expression in OECM1 cells: inhibition; also recorded: downregulation
[11]
  accumulation of antiproliferative ceramides in OECM1 cells: elevated accumulation
[12]
  proliferation of OECM1 cells: inhibited the proliferation
